Data as given in US20120225062A1 (priority 2011, published 2012).

test system: KMS11 (human myeloma cell line); test: Cell Proliferation Assay (CellTiter-Glo, 3 days); format: cell-based; settings: KMS-11, 72 h, KMS11-luc cells
Experimental: KMS11 (human myeloma cell line), were cultured in IMDM supplemented with 10% FBS, sodium pyruvate and antibiotics. Cells were plated in the same medium at a density of 2000 cells per well into 96 well tissue culture plates, with outside wells vacant, on the day of assay.
Test compounds supplied in DMSO were diluted into DMSO at 500 times the desired final concentrations before dilution into culture media to 2 times final concentrations. Equal volumes of 2× compounds were added to the cells in 96 well plates and incubated at 37° C. for 3 days.
After 3 days plates were equilibrated to room temperature and equal volume of CellTiter-Glow Reagent (Promega) was added to the culture wells. The plates were agitated briefly and luminescent signal was measured with luminometer.
Using the procedures of Cell Proliferation Assay, the EC50 concentrations of compounds of the examples were determined in KMS11 cells as shown in Table 4.

EC50 [nM] | Compound
34 | C[C@H]1C[C@@H](c2ccncc2NC(=O)c2ccc(F)c(-c3c(F)cc(C4(O)CCCC4)cc3F)n2)C[C@@H](N)[C@@H]1O [Example 161, N-(4-((1R,3R,4R,5S)-3-amino-4-hydroxy-5-methylcyclohexyl)pyridin-3-yl)-6-(2,6-difluoro-4-(1-hydroxycyclopentyl)phenyl)-5-fluoropicolinamide]
11 | C[C@H]1C[C@@H](c2ccncc2NC(=O)c2ccc(F)c(-c3c(F)cc(C(C)(C)O)cc3F)n2)C[C@@H](N)[C@@H]1O [Example 66, N-(4-((1R,3R,4R,5S)-3-amino-4-hydroxy-5-methylcyclohexyl)pyridin-3-yl)-6-(2,6-difluoro-4-(2-hydroxypropan-2-yl)phenyl)-5-fluoropicolinamide]
70 | Cc1cc(F)c(-c2nc(C(=O)Nc3cnccc3[C@H]3C[C@@H](N)[C@H](O)[C@@H](C)C3)ccc2F)c(F)c1 [Example 4, N-(4-((1R,3R,4R,5S)-3-amino-4-hydroxy-5-methylcyclohexyl)pyridin-3-yl)-6-(2,6-difluoro-4-methylphenyl)-5-fluoropicolinamide]
90 | C[C@H]1C[C@@H](c2ccncc2NC(=O)c2ccc(F)c(-c3c(F)cc([S@+](C)[O-])cc3F)n2)C[C@@H](N)[C@@H]1O [Example 27, N-(4-((1R,3R,4R,5S)-3-amino-4-hydroxy-5-methylcyclohexyl)pyridin-3-yl)-6-(2,6-difluoro-4-((S)-methylsulfinyl)phenyl)-5-fluoropicolinamide]
264 | CC(C)OCc1cc(F)c(-c2nc(C(=O)Nc3cnccc3[C@@H]3CCC[C@H](N)C3)ccc2F)c(F)c1 [Example 155, N-(4-((1R,3S)-3-aminocyclohexyl)pyridin-3-yl)-6-(2,6-difluoro-4-(isopropoxymethyl)phenyl)-5-fluoropicolinamide]
436 | N[C@H]1CCC[C@@H](c2ccncc2NC(=O)c2ccc(F)c(-c3c(F)cc(C4CCOCC4)cc3F)n2)C1 [Example 156, N-(4-((1R,3S)-3-aminocyclohexyl)pyridin-3-yl)-6-(2,6-difluoro-4-(tetrahydro-2H-pyran-4-yl)phenyl)-5-fluoropicolinamide]
262 | C[C@@H]1C[C@H](N)C[C@H](c2ccncc2NC(=O)c2ccc(F)c(-c3c(F)cc(F)cc3F)n2)C1 [Example 209, N-(4-((1R,3S,5S)-3-amino-5-methylcyclohexyl)pyridin-3-yl)-5-fluoro-6-(2,4,6-trifluorophenyl)picolinamide]
3880 | C[C@H]1C[C@@H](c2ccncc2NC(=O)c2ccc(F)c(-c3c(F)cc([S@@+](C)[O-])cc3F)n2)C[C@@H](N)[C@@H]1O [Example 28]
64 | C[C@@H]1C[C@H](N)C[C@H](c2ccncc2NC(=O)c2ccc(F)c(-c3c(F)cc(CO)cc3F)n2)C1 [Example 224, N-(4-((1R,3S,5S)-3-amino-5-methylcyclohexyl)pyridin-3-yl)-6-(2,6-difluoro-4-(hydroxymethyl)phenyl)-5-fluoropicolinamide]
325 | N[C@H]1CCC[C@@H](c2ccncc2NC(=O)c2ccc(F)c(-c3c(F)cc(N4CCOCC4)cc3F)n2)C1 [Example 166, N-(4-((1R,3S)-3-aminocyclohexyl)pyridin-3-yl)-6-(2,6-difluoro-4-morpholinophenyl)-5-fluoropicolinamide]
15 | C[C@@H]1C[C@H](N)C[C@H](c2ccncc2NC(=O)c2ccc(F)c(-c3c(F)cc([C@@H](C)O)cc3F)n2)C1 [Example 74, N-(4-((1R,3S,5S)-3-amino-5-methylcyclohexyl)pyridin-3-yl)-6-(2,6-difluoro-4-((R)-1-hydroxyethyl)phenyl)-5-fluoropicolinamide]
42 | C[C@@H]1C[C@H](N)C[C@H](c2ccncc2NC(=O)c2ccc(F)c(-c3c(F)cc(C(F)F)cc3F)n2)C1 [Example 57, N-(4-((1R,3S,5S)-3-amino-5-methylcyclohexyl)pyridin-3-yl)-6-(4-(difluoromethyl)-2,6-difluorophenyl)-5-fluoropicolinamide]
204 | CC(C)c1cc(F)c(-c2nc(C(=O)Nc3cnccc3[C@H]3C[C@@H](N)[C@H](O)[C@@H](C)C3)ccc2F)c(F)c1 [Example 199, N-(4-((1R,3R,4R,5S)-3-amino-4-hydroxy-5-methylcyclohexyl)pyridin-3-yl)-6-(2,6-difluoro-4-isopropylphenyl)-5-fluoropicolinamide]
62 | C[C@H]1CN(c2ccncc2NC(=O)c2ccc(F)c(-c3c(F)cc(Cl)cc3F)n2)C[C@@H](N)[C@@H]1O [Example 217, N-(4-((3R,4R,5S)-3-amino-4-hydroxy-5-methylpiperidin-1-yl)pyridin-3-yl)-6-(4-chloro-2,6-difluorophenyl)-5-fluoropicolinamide]
77 | C[C@H]1C[C@@H](c2ccncc2NC(=O)c2ccc(F)c(-c3c(F)cc(C4(C#N)CCOCC4)cc3F)n2)C[C@@H](N)[C@@H]1O [Example 171, N-(4-((1R,3R,4R,5S)-3-amino-4-hydroxy-5-methylcyclohexyl)pyridin-3-yl)-6-(4-(4-cyanotetrahydro-2H-pyran-4-yl)-2,6-difluorophenyl)-5-fluoropicolinamide]
15 | C[C@H]1C[C@@H](c2ccncc2NC(=O)c2ccc(F)c(-c3c(F)cc(C4(O)CCC4)cc3F)n2)C[C@@H](N)[C@@H]1O [Example 60, N-(4-((1R,3R,4R,5S)-3-amino-4-hydroxy-5-methylcyclohexyl)pyridin-3-yl)-6-(2,6-difluoro-4-(1-hydroxycyclobutyl)phenyl)-5-fluoropicolinamide]
366 | N[C@H]1CCC[C@@H](c2ccncc2NC(=O)c2ccc(F)c(-c3c(F)cc(C4(F)CCOCC4)cc3F)n2)C1 [Example 153, N-(4-((1R,3S)-3-aminocyclohexyl)pyridin-3-yl)-6-(2,6-difluoro-4-(4-fluorotetrahydro-2H-pyran-4-yl)phenyl)-5-fluoropicolinamide]
383 | C[C@@H]1C[C@H](N)C[C@H](c2ccncc2NC(=O)c2ccc(F)c(-c3c(F)cc(S(C)(=O)=O)cc3F)n2)C1 [Example 1, N-(4-((1R,3S,5S)-3-amino-5-methylcyclohexyl)pyridin-3-yl)-6-(2,6-difluoro-4-(methylsulfonyl)phenyl)-5-fluoropicolinamide]
169 | CSc1cc(F)c(-c2nc(C(=O)Nc3cnccc3[C@@H]3C[C@H](C)C[C@H](N)C3)ccc2F)c(F)c1 [Example 223, N-(4-((1R,3S,5S)-3-amino-5-methylcyclohexyl)pyridin-3-yl)-6-(2,6-difluoro-4-(methylthio)phenyl)-5-fluoropicolinamide]
68 | CCC(=O)c1cc(F)c(-c2nc(C(=O)Nc3cnccc3[C@H]3C[C@@H](N)[C@H](O)[C@@H](C)C3)ccc2F)c(F)c1 [Example 157, N-(4-((1R,3R,4R,5S)-3-amino-4-hydroxy-5-methylcyclohexyl)pyridin-3-yl)-6-(2,6-difluoro-4-propionylphenyl)-5-fluoropicolinamide]
74 | CSc1cc(F)c(-c2nc(C(=O)Nc3cnccc3[C@H]3C[C@@H](N)[C@@H](O)[C@@H](C)C3)ccc2F)c(F)c1 [Example 19, N-(4-((1R,3R,4S,5S)-3-amino-4-hydroxy-5-methylcyclohexyl)pyridin-3-yl)-6-(2,6-difluoro-4-(methylthio)phenyl)-5-fluoropicolinamide]
